Experimental data taken from patent US10758534B2 (Vertex Pharmaceuticals Incorporated, priority 2014, dated 2020).

Target: T1, F508del (Homo sapiens, UniProt P13569, DEL508-508)
T1 construct: expressed in transfected cells
Test: Protocol 2: FRET membrane potential optical assay (VIPR), identification of correction compounds
Assay type: cell-based
Conditions: Table 3; compounds of Table 1 as modulators of CFTR activity; protocol not stated
Outline: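 FRET read-out (CC2-DMPE donor, DiSBAC2(3) voltage-sensitive acceptor) of membrane depolarization on VIPR II. Corrector candidates incubated 16 hrs at 37° C. with NIH3T3 cells expressing F508del; temperature correction at 27° C. as positive control; stimulation by 10 μM forskolin, 20 μM genistein, chloride-free gluconate bath.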

T1 sequence (P13569 with tags, fused parts or gaps DEL508-508): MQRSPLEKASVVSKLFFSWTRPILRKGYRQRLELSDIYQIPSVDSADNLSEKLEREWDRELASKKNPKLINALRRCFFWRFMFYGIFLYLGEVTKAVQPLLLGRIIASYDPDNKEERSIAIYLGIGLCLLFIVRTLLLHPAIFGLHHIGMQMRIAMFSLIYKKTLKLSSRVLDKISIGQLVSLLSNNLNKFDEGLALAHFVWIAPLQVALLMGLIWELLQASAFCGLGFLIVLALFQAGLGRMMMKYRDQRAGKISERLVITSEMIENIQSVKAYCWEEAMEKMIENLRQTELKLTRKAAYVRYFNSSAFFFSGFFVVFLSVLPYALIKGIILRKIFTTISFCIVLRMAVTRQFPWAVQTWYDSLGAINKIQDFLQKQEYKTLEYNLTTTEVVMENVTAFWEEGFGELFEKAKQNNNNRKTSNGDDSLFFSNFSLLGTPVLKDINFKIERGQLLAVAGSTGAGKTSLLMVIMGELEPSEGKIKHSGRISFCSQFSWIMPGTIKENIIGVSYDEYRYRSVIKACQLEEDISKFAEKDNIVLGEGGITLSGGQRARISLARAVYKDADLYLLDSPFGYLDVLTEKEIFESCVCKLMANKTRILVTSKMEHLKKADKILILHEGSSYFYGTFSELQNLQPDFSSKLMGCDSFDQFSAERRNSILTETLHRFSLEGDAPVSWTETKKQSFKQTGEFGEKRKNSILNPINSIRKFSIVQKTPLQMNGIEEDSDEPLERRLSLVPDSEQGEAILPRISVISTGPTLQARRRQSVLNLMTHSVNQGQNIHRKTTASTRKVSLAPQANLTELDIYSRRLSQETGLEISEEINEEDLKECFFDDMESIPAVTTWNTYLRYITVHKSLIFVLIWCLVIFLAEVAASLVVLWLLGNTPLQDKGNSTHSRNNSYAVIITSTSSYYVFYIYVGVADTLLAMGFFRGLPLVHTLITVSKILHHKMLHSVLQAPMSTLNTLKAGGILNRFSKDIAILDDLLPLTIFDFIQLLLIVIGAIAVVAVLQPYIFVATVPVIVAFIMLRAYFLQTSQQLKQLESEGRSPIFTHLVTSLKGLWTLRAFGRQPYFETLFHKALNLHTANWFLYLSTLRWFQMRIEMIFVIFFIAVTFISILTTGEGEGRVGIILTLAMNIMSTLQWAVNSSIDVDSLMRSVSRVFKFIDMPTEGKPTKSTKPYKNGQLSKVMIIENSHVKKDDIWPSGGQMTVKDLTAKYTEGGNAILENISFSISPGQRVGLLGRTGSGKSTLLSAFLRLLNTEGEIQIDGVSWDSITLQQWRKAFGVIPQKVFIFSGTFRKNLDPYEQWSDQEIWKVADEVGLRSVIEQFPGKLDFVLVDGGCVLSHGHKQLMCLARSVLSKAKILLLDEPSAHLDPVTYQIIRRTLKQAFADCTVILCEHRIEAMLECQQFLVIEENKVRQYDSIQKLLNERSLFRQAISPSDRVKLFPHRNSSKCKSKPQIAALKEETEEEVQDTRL

Row | SMILES | EC30
1 | CC(C)COc1cc(F)cc(-c2ccc(C(=O)NS(=O)(=O)c3ccn[nH]3)c(N3[C@H](C)CC[C@@H]3C)n2)c1 [Compound 415, 2-[(2S,5R)-2,5-dimethylpyrrolidin-1-yl]-6-(3-fluoro-5-isobutoxy-phenyl)-N-(1H-pyrazol-5-ylsulfonyl)pyridine-3-carboxamide] | +++ (“+++” means <3 uM)
2 | CC(C)COc1cc(F)cc(-c2ccc(C(=O)NS(=O)(=O)c3cccc(N)n3)c(OC3C(C)CCC3C)n2)c1 (centres unmarked) [Compound 416, N-[(6-amino-2-pyridyl)sulfonyl]-2-(2,5-dimethylcyclopentoxy)-6-(3-fluoro-5-isobutoxy-phenyl)pyridine-3-carboxamide] | +++ (“+++” means <3 uM)
3 | CC(C)(C)c1ccc(C(=O)NS(=O)(=O)c2cccc(N)n2)c(-c2ccc(F)cc2)n1 [Compound 417, N-[(6-amino-2-pyridyl)sulfonyl]-6-tert-butyl-2-(4-fluorophenyl)pyridine-3-carboxamide] | ++ (“++” means between 3 uM and 10 uM)
4 | CC(C)COc1cc(F)cc(-c2ccc(C(=O)NS(=O)(=O)c3cccc(N)n3)c(N3CCCCCC3)n2)c1 [Compound 418, N-[(6-amino-2-pyridyl)sulfonyl]-2-(azepan-1-yl)-6-(3-fluoro-5-isobutoxy-phenyl)pyridine-3-carboxamide] | +++ (“+++” means <3 uM)
5 | COCC1CCCN(c2nc(-c3cc(F)cc(OCC(C)C)c3)ccc2C(=O)NS(=O)(=O)c2cccc(N)n2)C1 (centres unmarked) [Compound 419, N-[(6-amino-2-pyridyl)sulfonyl]-6-(3-fluoro-5-isobutoxy-phenyl)-2-[3-(methoxymethyl)-1-piperidyl]pyridine-3-carboxamide] | +++ (“+++” means <3 uM)
6 | CC(C)COc1cc(F)cc(-c2ccc(C(=O)NS(=O)(=O)c3cccc(N)n3)c(N3C4CCC3CC4)n2)c1 [Compound 420, N-[(6-amino-2-pyridyl)sulfonyl]-2-(7-azabicyclo[2.2.1]heptan-7-yl)-6-(3-fluoro-5-isobutoxy-phenyl)pyridine-3-carboxamide] | +++ (“+++” means <3 uM)
7 | CC(C)COc1cc(F)cc(-c2ccc(C(=O)NS(=O)(=O)c3cccc(N)n3)c(N3CCC[C@@H]3C)n2)c1 [Compound 421, N-[(6-amino-2-pyridyl)sulfonyl]-6-(3-fluoro-5-isobutoxy-phenyl)-2-[(2S)-2-methylpyrrolidin-1-yl]pyridine-3-carboxamide] | +++ (“+++” means <3 uM)
8 | CC(C)COc1cc(F)cc(-c2ccc(C(=O)NS(=O)(=O)c3ccc[nH]c3=O)c(N3CCC(C)CC3)n2)c1 [Compound 422, 6-(3-fluoro-5-isobutoxy-phenyl)-2-(4-methyl-1-piperidyl)-N-[(2-oxo-1H-pyridin-3-yl)sulfonyl]pyridine-3-carboxamide] | +++ (“+++” means <3 uM)
9 | COc1ncccc1S(=O)(=O)NC(=O)c1cc2c(nc1Oc1c(C)cc(C)cc1C)C(C)(C)CCC2 [Compound 423, N-[(2-methoxy-3-pyridyl)sulfonyl]-8,8-dimethyl-2-(2,4,6-trimethylphenoxy)-6,7-dihydro-5H-quinoline-3-carboxamide] | +++ (“+++” means <3 uM)
10 | CC(C)COc1cc(F)cc(-c2ccc(C(=O)NS(=O)(=O)c3cccc(N)n3)c(N3CCCC34CCOC4)n2)c1 (centres unmarked) [Compound 424, N-[(6-amino-2-pyridyl)sulfonyl]-6-(3-fluoro-5-isobutoxy-phenyl)-2-(8-oxa-4-azaspiro[4.4]nonan-4-yl)pyridine-3-carboxamide] | +++ (“+++” means <3 uM)
11 | CC(C)COc1cc(F)cc(-c2ccc(C(=O)NS(=O)(=O)c3cccc(N)n3)c(N3CCCCC3C)n2)c1 (centres unmarked) [Compound 425, N-[(6-amino-2-pyridyl)sulfonyl]-6-(3-fluoro-5-isobutoxy-phenyl)-2-(2-methyl-1-piperidyl)pyridine-3-carboxamide] | +++ (“+++” means <3 uM)
12 | CC(C)COc1cc(F)cc(-c2ccc(C(=O)NS(=O)(=O)c3ccn[nH]3)c(N3CCC(C(F)(F)F)CC3)n2)c1 [Compound 426, 6-(3-fluoro-5-isobutoxy-phenyl)-N-(1H-pyrazol-5-ylsulfonyl)-2-[14-(trifluoromethyl)-1-piperidyl]pyridine-3-carboxamide] | +++ (“+++” means <3 uM)
13 | COc1ncccc1S(=O)(=O)NC(=O)C1c2cccc(-c3ccccc3)c2CN1Cc1c(C)cc(C)cc1C (centres unmarked) [Compound 427, N-[(2-methoxy-3-pyridyl)sulfonyl]-4-phenyl-2-[(2,4,6-trimethylphenyl)methyl]isoindoline-1-carboxamide] | +++ (“+++” means <3 uM)
14 | C[C@@H]1CC[C@H](C)N1c1nc(-c2ccc(OC3CCC3)nc2)ccc1C(=O)NS(=O)(=O)c1cccc(N)n1 [Compound 428, N-[(6-amino-2-pyridyl)sulfonyl]-6-[6-(cyclobutoxy)-3-pyridyl]-2-[(2S,5R)-2,5-dimethylpyrrolidin-1-yl]pyridine-3-carboxamide] | +++ (“+++” means <3 uM)
15 | CCCc1ccccc1-c1cnc(Oc2c(C)cc(C)cc2C)c(C(=O)NS(=O)(=O)c2cccc(N)n2)c1 [Compound 429, N-[(6-amino-2-pyridyl)sulfonyl]-5-(2-propylphenyl)-2-(2,4,6-trimethylphenoxy)pyridine-3-carboxamide] | +++ (“+++” means <3 uM)
16 | C=Cc1ccc(C(=O)NS(=O)(=O)c2cccc(N)n2)c(Oc2c(C)cc(C)cc2C)n1 [Compound 430, N-[(6-amino-2-pyridyl)sulfonyl]-2-(2,4,6-trimethylphenoxy)-6-vinyl-pyridine-3-carboxamide] | +++ (“+++” means <3 uM)
17 | C#CC1CCCN(c2nc(-c3cc(F)cc(OCC(C)C)c3)ccc2C(=O)NS(=O)(=O)c2ccn[nH]2)C1 (centres unmarked) [Compound 431, 2-(3-ethynyl-1-piperidyl)-6-(3-fluoro-5-isobutoxy-phenyl)-N-(1H-pyrazol-5-ylsulfonyl)pyridine-3-carboxamide] | ++ (“++” means between 3 uM and 10 uM)
18 | CC(C)COc1cccc(-c2ccc(C(=O)NS(=O)(=O)c3cccc(N)n3)c(N3[C@H](C)CC[C@@H]3C)n2)n1 [Compound 432, N-[(6-amino-2-pyridyl)sulfonyl]-2-[(2S,5R)-2,5-dimethylpyrrolidin-1-yl]-6-(6-isobutoxy-2-pyridyl)pyridine-3-carboxamide] | +++ (“+++” means <3 uM)
19 | CC(C)COc1cc(F)cc(-c2ccc(C(=O)NS(=O)(=O)c3cccc(N)n3)c(OC3CCOC3)n2)c1 (centres unmarked) [Compound 433, N-[(6-amino-2-pyridyl)sulfonyl]-6-(3-fluoro-5-isobutoxy-phenyl)-2-tetrahydrofuran-3-yloxy-pyridine-3-carboxamide] | +++ (“+++” means <3 uM)
20 | CCOc1ccc(-c2ccc(C(=O)NS(=O)(=O)c3nccnc3N)c(Oc3ccc(C)cc3C)n2)cc1 [Compound 434, N-(3-aminopyrazin-2-yl)sulfonyl-2-(2,4-dimethylphenoxy)-6-(4-ethoxyphenyl)pyridine-3-carboxamide] | +++ (“+++” means <3 uM)
21 | CC(C)Oc1ccc(-c2ccc(C(=O)NS(=O)(=O)c3cccc(N)n3)c(N3CCC(C)C(C)(C)C3)n2)cn1 (centres unmarked) [Compound 435, N-[(6-amino-2-pyridyl)sulfonyl]-6-(6-isopropoxy-3-pyridyl)-2-(3,3,4-trimethyl-1-piperidyl)pyridine-3-carboxamide] | +++ (“+++” means <3 uM)
22 | Cc1cc(C)c(Oc2nc(-c3ccc(OC(C)C)cc3)ccc2C(=O)NS(=O)(=O)c2cccc(N)n2)c(C)c1 [Compound 436, N-[(6-amino-2-pyridyl)sulfonyl]-6-(4-isopropoxyphenyl)-2-(2,4,6-trimethylphenoxy)pyridine-3-carboxamide] | +++ (“+++” means <3 uM)
23 | CC1CN(c2nc(-c3ccc(NC(C)C)nc3)ccc2C(=O)NS(=O)(=O)c2cccc(N)n2)C(C)(C)C1 (centres unmarked) [Compound 437, N-[(6-amino-2-pyridyl)sulfonyl]-6-[16-(isopropylamino)-3-pyridyl]-2-(2,2,4-trimethylpyrrolidin-1-yl)pyridine-3-carboxamide] | +++ (“+++” means <3 uM)
24 | CC(C)COc1cc(F)cc(-c2ccc(C(=O)NS(=O)(=O)c3cccc(N)n3)c(OC3CCC(C)CC3)n2)c1 (centres unmarked) [Compound 438, N-[(6-amino-2-pyridyl)sulfonyl]-6-(3-fluoro-5-isobutoxy-phenyl)-2-(4-methylcyclohexoxy)pyridine-3-carboxamide] | +++ (“+++” means <3 uM)
25 | Cc1cc(C)c(Oc2nc(-c3ccc(F)cc3F)ccc2C(=O)NS(=O)(=O)c2cccc(N)n2)c(C)c1 [Compound 439, N-[(6-amino-2-pyridyl)sulfonyl]-6-(2,4-difluorophenyl)-2-(2,4,6-trimethylphenoxy)pyridine-3-carboxamide] | +++ (“+++” means <3 uM)
26 | CC(C)COc1ccc(-c2ccc(C(=O)NS(=O)(=O)c3cccc(N)n3)c(N3CC(C)CC3(C)C)n2)cc1 (centres unmarked) [Compound 440, N-[(6-amino-2-pyridyl)sulfonyl]-6-(4-isobutoxyphenyl)-2-(2,2,4-trimethylpyrrolidin-1-yl)pyridine-3-carboxamide] | +++ (“+++” means <3 uM)
27 | CC(C)Oc1ccc(-c2ccc(C(=O)NS(=O)(=O)c3cccc(N)n3)c(N3CC[C@@H](C)[C@H]3C)n2)cn1 [Compound 441, N-[(6-amino-2-pyridyl)sulfonyl]-2-[(2R,3R)-2,3-dimethylpyrrolidin-1-yl]-6-(6-isopropoxy-3-pyridyl)pyridine-3-carboxamide] | +++ (“+++” means <3 uM)
28 | CC(C)COc1cc(F)cc(-c2ccc(C(=O)NS(=O)(=O)c3ccn[nH]3)c(N3CCCCC3C)n2)c1 (centres unmarked) [Compound 442, 6-(3-fluoro-5-isobutoxy-phenyl)-2-(2-methyl-1-piperidyl)-N-(1H-pyrazol-5-ylsulfonyl)pyridine-3-carboxamide] | +++ (“+++” means <3 uM)
29 | Cc1cc(C(C)(C)C)cc(C)c1Cn1nc(C(C)(C)C)cc1C(=O)NS(=O)(=O)c1ccccc1 [Compound 443, N-(benzenesulfonyl)-5-tert-butyl-2-[(4-tert-butyl-2,6-dimethyl-phenyl)methyl]pyrazole-3-carboxamide] | + (“+” means greater than 10 uM)
